What was measured:
[1] = target: T1, HLA-A*0201 molecules on T2 cells (Homo sapiens, UniProt P04439, D140Y/D185E/D98H/E176V/E277Q/G131W/G231S/I119V/I121R/I166T/I218V/L300P/L318F/N151K/N90K/P208A/P217A/Q86G/Q94H/R138H/R169H/T345S); assay: Peptide-binding assay: up-regulation of HLA-A*0201 on T2 cells; settings: for FI (fluorescence index): 1 × 10^6 T2 cells, 50 μM peptide, serum-free RPMI 1640, β2-microglobulin 3 μg/ml, 16 h, 37 °C, flow cytometry with anti-HLA-A2 Ab (BB7.2) and FITC secondary, mean of triplicate; for affinity to HLA-A2.1 (in words): T2 cells, authors' grading of the Table 2 data
T1 construct: endogenous in cells; host or cells: T2 cells
Experimental: To determine whether the candidate epitopes can bind to HLA-A*0201 molecules, up-regulation of peptide-induced HLA-A*0201 molecules on T2 cells was examined. Briefly, according to previous reference, 1 × 10^6 T2 cells were incubated with 50 μM of the synthesized peptides in serum-free RPMI 1640 medium supplemented with β2-microglobulin (Sigma) at a concentration of 3 μg/ml for 16 h at 37 °C, 5 % CO2 [18]. Expression of HLA-A*0201 on T2 cells was then determined with the FACS Calibur flow cytometer (Becton–Dickinson, USA), by staining with primary anti-HLA-A2 Ab derived from BB7.2 and FITC-labeled goat-antimouse IgG (BD Biosciences Pharmingen, USA) secondary antibody. The data were analyzed using Cell Quest software (Becton–Dickinson, USA). The Fluorescence index (FI) was calculated as follows: FI = (mean FITC fluorescence with the given peptide − mean FITC fluorescence without peptide)/(mean FITC fluorescence without peptide). Samples were measured in triplicate and then mean FI was calculated. An octapeptide mHpa (519–526) ([…]) derived from mouse Hpa was served negative control.

[2] = target: T2, HLA-A*0201/peptide complexes on T2 cells (Homo sapiens, UniProt P04439, D140Y/D185E/D98H/E176V/E277Q/G131W/G231S/I119V/I121R/I166T/I218V/L300P/L318F/N151K/N90K/P208A/P217A/Q86G/Q94H/R138H/R169H/T345S); assay: Peptide/HLA-A*0201 complex stability on T2 cells; type: binding; settings: authors' grading of the Table 2 data
T2 construct: Expression of HLA-A*0201 on T2 cells was then determined; endogenous in cells; host or cells: T2 cells
Experimental: Briefly, T2 cells (10^6/ml) were incubated overnight with the candidate peptides, respectively, at a concentration of 20 μg/ml in serum-free medium supplemented with β2-microglobulin at a concentration of 3 μg/ml at 37 °C.
Thereafter, they were washed four times to remove free peptides, incubated with Brefeldin A (10 µg/ml) for 1 h to block cell surface expression of newly synthesized HLA-A2.1 molecules, washed and incubated at 37 °C for 0, 2, 4, 6, or 8 h. Subsequently, cells were stained with anti-HLA-A2 antibody from BB7.2 cells to evaluate the HLA-A2.1 molecule expression. For each time point, peptide induced HLA-A*0201 expression was evaluated by the formula mentioned above. Dissociation complex50 (DC50) was defined as the time required for the loss of 50 % of the HLA-A*0201/peptide complexes stabilized at time = 0.

IFN-γ-producing T cells = assay: IFN-γ ELISPOT assay of peptide-induced effectors; type: cell-based; settings: human HLA-A2+ donor T cells restimulated every 7 days with DCs pulsed with 100 μg/ml peptide; assessed on day 23; triplicate; compared to negative peptide control, P < 0.05
Experimental: (§1) PBMCs were isolated from healthy HLA-A2+ donors by Ficoll–Hypaque density gradient centrifugation (TBC company, Tianjing, China) and then seeded into culture flasks in RPMI-1640 medium supplemented with penicillin (100 U/ml), streptomycin (100 μg/ml), and 10 % FBS. After monocytes adhered (incubation for 2 h), the nonadherent cells were collected and frozen in freeze medium (60 % RPMI-1640 and 30 % FBS, 10 % DMSO) for later use in CTL assays. The adherent cells were cultured for 5 days in RPMI-1640 containing 1,000 U/ml of granulocyte–macrophage colony-stimulating factor (R&D Systems, Inc., Minneapolis, MN) and interleukin-4 (IL-4; R&D Systems, Inc.) and were the cultured for an additional 2 days in the presence of 1,000 U/ml of tumor necrosis factor α (R&D Systems, Inc.) to induce final maturation. After 7 days of culture, the mature DCs were harvested and analyzed for DC typical phenotypes by FACS analysis.
(§2) Briefly, DCs were loaded with different peptides at a final concentration of 100 μg/ml for 4 h and were then irradiated with 20 Gy, which prevented all outgrowths in the control cultures. Autologous T cells were restimulated every 7 days with the previously mentioned peptide-pulsed DCs to generate peptide-specific CTLs. Recombinant interleukin 2 (IL-2) at a concentration of 20 U/ml was added to the culture medium on day 3 after every stimulation. Cytotoxic T lymphocyte activity was then assessed on day 23 by a 4 h ^51Cr release assay. Effectors generated from negative peptide-pulsed DCs were used as controls.
IFN-γ secretion of effectors was assayed by enzyme-linked immunospot (ELISPOT). Multiscreen 96-well assay plates (Dakewe, Shenzhen, China) were precoated overnight at 4 °C with anti-IFN-γ antibody according to the manufacturer’s instruction. After washing with PBST (PBS-0.05 % Tween 20), plates were blocked for 1 h at 37 °C with PBS/1 % BSA. […] After being air-dried, the number of spots in each well was counted using the Bioreader 4000 PRO-X (Bio-Sys; Germany).
Fig. 2 Specific IFN-γ by ELISPOT assay. […] The IFN-γ secretion was then assessed on day 23. […]

[3] = tested on: target cells expressing neuritin and HLA-A2.1; assay: 4-h 51Cr release cytotoxicity assay of CTLs induced in vitro; type: cell-based, human; settings: PBMCs from four HLA-A2.1+ donors stimulated with peptide-pulsed DCs, E/T 25:1, 50:1, 100:1, triplicate
Experimental: as §1, §2
To evaluate the levels of CTL activity, a standard 4-h ^51Cr release assay was used. Briefly, target cells were incubated with ^51Cr (100 μCi per 1 × 10^6 cells) for 2 h in a 37 °C water bath. […] After a 4-h incubation, the supernatants were harvested, and the amount of released ^51Cr was measured with a gamma counter. The percent specific lysis was calculated according to the following formula: […]
Fig. 3 Specific lysis of CTLs against target cells. […] After a 4-h incubation, the supernatants were harvested, and the amount of released ^51Cr was measured with a gamma counter. […]

[4] = tested on: neuritin and HLA-A2.1 positive cells; assay: In vivo immunogenicity: CTLs from immunized mice, 51Cr release assay; settings: HLA-A*0201/Kb mice, 100 μg peptide in IFA, boosted once a week for three times, splenocytes 7 days after immunization as effectors
Experimental: To evaluate the levels of CTL activity, a standard 4-h ^51Cr release assay was used. Briefly, target cells were incubated with ^51Cr (100 μCi per 1 × 10^6 cells) for 2 h in a 37 °C water bath. After incubation with ^51Cr, target cells were washed three times with PBS, resuspended in RPMI-1640 medium, and mixed with effector cells at a 25:1, 50:1 or 100:1 of effector to target (E/T) ratio. Assays were performed in triplicate for each sample at each ratio in a 96-well round-bottomed plate. After a 4-h incubation, the supernatants were harvested, and the amount of released ^51Cr was measured with a gamma counter. The percent specific lysis was calculated according to the following formula:
Specific lysis = (experimental release − spontaneous release)/(maximal release − spontaneous release) × 100 %
(§3) HLA-A*0201/Kb mice were immunized with 100 μg of various peptides prepared in incomplete Freund’s adjuvant (IFA) and boosted once a week for three times. As a control, mice were injected with an IFA emulsion without peptide. 7 days after immunization, splenocytes from injected animals were cultured and used as effector cells.
as §3, with “Fig. 5 In vivo induction of epitope-specific CTLs in vivo. HLA-A*0201/Kb” for “HLA-A*0201/Kb”, “cells. The cytotoxic activities of CTLs were determined against target cells at various E/T ratios using ^51Cr release assay. […] Compared with controls, P < 0.05” for “cells.”

| FI (fluorescence index) [1] | affinity to HLA-A2.1 (in words) [1] | stability to HLA-A2.1 (in words) [2] | Sequence | peptide-specific T cell response (frequency of IFN-γ-producing T cells) (IFN-γ-producing T cells) | induction of neuritin-specific CTLs that lyse target cells [3] | lysis of target cells by CTLs primed in immunized mice [4] |
| --- | --- | --- | --- | --- | --- | --- |
| 0.38 |  |  | FSYGFFVI [mHpa (519–526), reference compound] |  |  |  |
| 1.68 | high | high | ILAVQIAYL [neuritin13–21] | strong peptide-specific T cell response | able to elicit neuritin-specific CTLs | could lyse neuritin and HLA-A2.1 positive cells with high efficiency |
| 1.07 | moderate |  | KLNGRYISL [neuritin4–12] | strong peptide-specific T cell response | able to elicit neuritin-specific CTLs | could lyse neuritin and HLA-A2.1 positive cells with high efficiency |
| 1.24 | moderate |  | LLPAFPVLL [neuritin121–129] | strong peptide-specific T cell response | able to elicit neuritin-specific CTLs | could lyse neuritin and HLA-A2.1 positive cells with high efficiency |
| 0.68 | low | low | VLLVSLSAA [neuritin127–135] |  |  |  |
